The subject of test [1] is HCT-116. Briefly: Antiproliferative activity against human HCT-116 cells assessed as inhibition of cell growth. It counts as functional, cell-based.
Test [2] concerns the target T1, Tumour suppressor p53/oncoprotein Mdm2 (Homo sapiens, UniProt P04637+Q00987). As to the kind of experiment: Binding affinity to MDM2/p53 interaction (unknown origin) assessed as inhibition constant. In kind it is protein assay.
The subject of test [3] is A549. As to the kind of experiment: Antiproliferative activity against human A549 cells assessed as inhibition of cell growth. It counts as functional, cell-based.
For test [4], the system named is MCF7. As to the kind of experiment: Antiproliferative activity against human MCF7 cells assessed as inhibition of cell growth. It counts as functional, cell-based.
Test [5] addresses Tumour suppressor protein p53/Mdm4 (Homo sapiens, UniProt O15151+P04637). Briefly: Binding affinity to MDM4/p53 interaction (unknown origin) assessed as inhibition constant. In kind it is protein assay.
A further test relates to LNCaP. Briefly: Antiproliferative activity against human LNCaP cells expressing p53 assessed as inhibition of cell growth by MTT assay. It counts as functional, cell-based.
Test [6] deals with PC-3. As to the kind of experiment: Antiproliferative activity against human PC-3 cells assessed as inhibition of cell growth by MTT assay. In kind it is functional, cell-based.
Test [7] has as its system MCF7. Briefly: Antiproliferative activity against human MCF7 cells assessed as inhibition of cell growth by MTT assay. It counts as functional, cell-based.
The subject of a further test is HeLa. Briefly: Antiproliferative activity against human HeLa cells assessed as inhibition of cell growth by MTT assay. It counts as functional, cell-based.
A further test relates to K562. Briefly: Antiproliferative activity against human K562 cells assessed as inhibition of cell growth. It counts as functional, cell-based.
Test [8] deals with MDA-MB-231. Briefly: Antiproliferative activity against human MDA-MB-231 cells assessed as inhibition of cell growth. In kind it is functional, cell-based.
The next test deals with JEG-3. As to the kind of experiment: Antiproliferative activity against human JEG-3 cells assessed as inhibition of cell growth. It counts as functional, cell-based.
Test [9] concerns HCT-116. As to the kind of experiment: Antiproliferative activity against human HCT-116 cells assessed as inhibition of cell growth by MTT assay. It counts as functional, cell-based.
Test [10] deals with T1, Tumour suppressor p53/oncoprotein Mdm2. Briefly: Inhibition of MDM2/p53 interaction (unknown origin). It counts as protein assay.
The subject of test [11] is U-87 MG. Briefly: Antiproliferative activity against human U87 cells assessed as inhibition of cell growth. It counts as functional, cell-based, U-87MG ATCC.
A further test deals with HL-60. Briefly: Antiproliferative activity against human HL-60 cells assessed as inhibition of cell growth. In kind it is functional, cell-based.
Test [12] concerns MDA-MB-231. Briefly: Induction of apoptosis in human MDA-MB-231 cells assessed as increase in p53 level. It counts as functional.
Test [13] deals with PC-3. As to the kind of experiment: Induction of apoptosis in human PC-3 cells assessed as increase in p53 level. It counts as functional.
Test [14] concerns A549. As to the kind of experiment: Induction of apoptosis in human A549 cells assessed as increase in p53 level. It counts as functional.
Test [15] concerns HCT-116. As to the kind of experiment: Induction of apoptosis in human HCT-116 cells assessed as increase in p53 level. It counts as functional.
Test [16] has as its system PC-3. Briefly: Antiproliferative activity against human PC-3 cells assessed as inhibition of cell growth. It counts as functional, cell-based.
For another test, the system named is SH-SY5Y. Briefly: Antiproliferative activity against human SH-SY5Y cells assessed as inhibition of cell growth by CCK-8 assay. In kind it is functional, cell-based.
The test system of test [17] is U-87 MG. As to the kind of experiment: Antiproliferative activity against human U-87 MG cells assessed as inhibition of cell growth by CCK-8 assay. It counts as functional, cell-based, U-87MG ATCC.
Test [18] deals with HCT-116. As to the kind of experiment: Antiproliferative activity against human HCT-116 cells assessed as inhibition of cell growth by CCK-8 assay. In kind it is functional, cell-based.
Test [19] has as its target E3 ubiquitin-protein ligase Mdm2 (Homo sapiens) (UniProt Q00987). Briefly: Binding affinity to MDM2 (unknown origin) at 10 uM relative to control.
The next test relates to PANC-1. As to the kind of experiment: Antiproliferative activity against human PANC-1 cells assessed as inhibition of cell growth by MTT assay. In kind it is functional, cell-based.
A further test deals with HT-29. Briefly: Antiproliferative activity against human HT-29 cells assessed as inhibition of cell growth by MTT assay. It counts as functional, cell-based.
Test [20] deals with E3 ubiquitin-protein ligase Mdm2 (Homo sapiens) (UniProt Q00987). As to the kind of experiment: Binding affinity to MDM2 (unknown origin) assessed as change in Gibbs free energy.
The test system of test [21] is A549. As to the kind of experiment: Antiproliferative activity against human A549 cells assessed as inhibition of cell growth by MTT assay. In kind it is functional, cell-based.

Converted amounts (≈) assume the structure as drawn.

T1 sequence (P04637 whole entry): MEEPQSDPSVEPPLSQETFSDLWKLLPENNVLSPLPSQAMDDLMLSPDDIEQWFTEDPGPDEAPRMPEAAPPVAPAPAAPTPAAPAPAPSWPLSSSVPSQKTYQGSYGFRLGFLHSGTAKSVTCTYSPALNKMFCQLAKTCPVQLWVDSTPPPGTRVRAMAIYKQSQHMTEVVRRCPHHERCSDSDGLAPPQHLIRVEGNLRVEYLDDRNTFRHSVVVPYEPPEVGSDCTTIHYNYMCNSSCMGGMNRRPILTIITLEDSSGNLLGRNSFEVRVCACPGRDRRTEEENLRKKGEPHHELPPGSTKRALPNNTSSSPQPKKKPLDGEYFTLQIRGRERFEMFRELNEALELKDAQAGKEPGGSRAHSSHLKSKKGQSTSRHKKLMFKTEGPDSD
T1 sequence (Q00987 whole entry): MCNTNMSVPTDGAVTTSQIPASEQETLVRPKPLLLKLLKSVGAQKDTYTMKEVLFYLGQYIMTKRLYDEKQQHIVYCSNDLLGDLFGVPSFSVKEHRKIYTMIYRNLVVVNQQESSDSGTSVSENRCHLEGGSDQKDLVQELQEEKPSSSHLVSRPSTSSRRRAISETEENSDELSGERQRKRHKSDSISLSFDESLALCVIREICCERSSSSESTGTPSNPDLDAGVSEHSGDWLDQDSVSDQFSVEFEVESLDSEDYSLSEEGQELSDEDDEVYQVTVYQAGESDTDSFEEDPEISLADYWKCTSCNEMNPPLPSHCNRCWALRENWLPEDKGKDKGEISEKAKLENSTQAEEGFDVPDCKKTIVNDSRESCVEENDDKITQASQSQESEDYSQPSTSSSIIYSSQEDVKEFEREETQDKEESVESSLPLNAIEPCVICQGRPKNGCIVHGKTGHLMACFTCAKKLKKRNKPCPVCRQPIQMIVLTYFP
Chain of E3 ubiquitin-protein ligase Mdm2 (Homo sapiens) (Q00987 whole entry, looked up): as the sequence (Q00987 whole entry) above
Chain of Tumour suppressor protein p53/Mdm4 (P04637 whole entry): as the sequence (P04637 whole entry) above
Chain of Tumour suppressor protein p53/Mdm4 (O15151 whole entry): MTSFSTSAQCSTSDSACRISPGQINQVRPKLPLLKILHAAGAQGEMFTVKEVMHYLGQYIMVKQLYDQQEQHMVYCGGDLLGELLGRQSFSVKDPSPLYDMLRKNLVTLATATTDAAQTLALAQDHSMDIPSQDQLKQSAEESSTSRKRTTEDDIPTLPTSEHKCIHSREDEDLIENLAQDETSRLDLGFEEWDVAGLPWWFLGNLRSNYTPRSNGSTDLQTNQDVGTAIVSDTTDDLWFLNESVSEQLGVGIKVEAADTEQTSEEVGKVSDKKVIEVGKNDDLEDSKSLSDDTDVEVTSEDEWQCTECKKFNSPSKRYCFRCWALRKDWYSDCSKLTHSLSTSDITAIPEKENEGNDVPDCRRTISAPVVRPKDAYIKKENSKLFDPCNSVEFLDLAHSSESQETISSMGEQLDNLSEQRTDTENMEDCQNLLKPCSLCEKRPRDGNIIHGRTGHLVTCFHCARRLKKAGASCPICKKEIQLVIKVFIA

Turning to `O=C1/C(=C/c2cccc(Cl)c2)c2ccccc2N1S(=O)(=O)c1cccc(Cl)c1`, the figures for the IC50 in the test with HCT-116 [1], in the test with A549 [3] and in the test on MCF7 [4] were 11.2 µM, 12.5 µM and 6.17 µM, respectively. Besides, the results for the Ki in test [2] and in test [5] were 7.24 µM and 0.031 µM, respectively.

On to `COc1ccc([C@@H]2CN(C)[C@@]3(C(=O)Nc4ccccc43)[C@]23N=C(c2ccc(C)cc2)OC3=O)cc1`, for which the figures for the concentration for half-maximal inhibition (IC50) with LNCaP and in the test on PC-3 [6] were 1.08 µM and 3.21 µM, respectively.

Consider `CN1[C@H](c2ccc(Cl)cc2)[C@@]2(C[C@]13C(=O)Nc1ccc(Br)cc13)NC(=O)N(c1ccc(F)c(Cl)c1)C2=O`, for which the IC50 in the test on MCF7 [7] is 1.3 µM.

As for `C[C@@H]1[C@@H]2CCCC[C@@H]2N2[C@H]1[C@@H](c1ccc(F)cc1)[C@@]1(CCC/C(=C\c3ccc(F)cc3)C1=O)[C@@]21C(=O)Nc2cc(Cl)ccc21`, the IC50 in the test with HeLa is 7.2 µM.

For the molecule `COc1ccc(/C=C2\CCC[C@@]3(C2=O)[C@@H]2CCCN2[C@@]2(C(=O)Nc4ccccc42)[C@H]3c2ccc(OC)cc2)cc1`, in the test with K562, the IC50 worked out at 13.4 µM.

In the case of `C[C@@H]1[C@@H]2CCCC[C@@H]2N2[C@H]1[C@@H](c1ccccc1)[C@@]1(CCC/C(=C\c3ccccc3)C1=O)[C@@]21C(=O)Nc2cc(Cl)ccc21`, in the test on PC-3 [6], the IC50 was determined as 3.7 µM.

As to `C[C@@H]1CN(C)[C@]2(C(=O)N(CN3CCSCC3)c3ccccc32)[C@@]12CCC/C(=C\c1ccccc1)C2=O`, the figures for the half-maximal inhibitory concentration (IC50) with MDA-MB-231 [8], in the test with JEG-3 and in the test on MCF7 [4] were 31 µg/mL, 31 µg/mL (≈ 61.8 µM) and 31 µg/mL, respectively.

For `Cc1cc(S(=O)(=O)/N=C2/NCCN2Cc2cc(C(F)(F)F)cc(C(F)(F)F)c2)c(SCc2nc(N)nc(N3CCN(Cc4ccccc4)CC3)n2)cc1Cl`, the concentration for half-maximal inhibition (IC50) with HeLa, with HCT-116 [9] and in the test on MCF7 [7] was 4.8 µM each time.

In the case of `O=c1[nH]cc(F)c(=O)[nH]1` [FLUOROURACIL], the IC50 with MCF7 [4] was found to be 78.3 µM.

In the case of `Cc1cc(S(=O)(=O)/N=C2/NCCN2Cc2ccc(C(F)(F)F)cc2)c(SCc2nc(N)nc(N3CCN(c4cccc(C(F)(F)F)c4)CC3)n2)cc1Cl`, the concentration for half-maximal inhibition (IC50) in the test with HeLa, in the test on HCT-116 [9] and in the test with MCF7 [7] was 5 µM throughout.

For `O=C1/C(=C/c2ccc(Br)cc2)CCC[C@]12[C@@H]1CCCN1[C@@]1(C(=O)Nc3ccccc31)[C@H]2c1ccc(Br)cc1`, the IC50 in the test with MCF7 [4] is 15.5 µM.

`Cc1cc(S(=O)(=O)/N=C2/NCCN2Cc2cc(C(F)(F)F)cc(C(F)(F)F)c2)c(SCc2nc(N)nc(N3CCN(c4ccccc4)CC3)n2)cc1Cl`: the IC50 in the test on HeLa, in the test on HCT-116 [9] and in the test on MCF7 [7] was 3.6 µM throughout.

Turning to `COc1cc(OC)c(C(=O)/C=C/c2ccc(Br)cc2)c(OCC=C(C)C)c1`, the IC50 in test [10] turned out to be 2.1 µM.

With `O=C(Nc1cccc(Cl)c1)Sc1nnc(-c2ccc(Cl)cc2)n1-c1ccccc1`, the 50% inhibitory concentration (IC50) was 4.15 µM in the test with U-87 MG [11], 3.85 µM in the test with A549 [3] and 17.5 µM in the test on HL-60.

Take `O=C(c1nc2ccccc2[nH]1)[C@H]1[C@H](c2ccccc2)C2CC3CCCCC3N2[C@]12C(=O)Nc1ccc(Cl)cc12` (stereo partly drawn): the IC50 with HCT-116 [1] is 7.24 µM; with MDA-MB-231 [8], 2.4 µM; in the test on A549 [3], 7.81 µM; with PC-3 [16], 3.4 µM. In addition, the Activity in the test with MDA-MB-231 [12] was found to be 51.51%; in the test with PC-3 [13] it was 57.53%; with A549 [14], 34.31%; with HCT-116 [15] it was 49.83%.

For the molecule `O=C1NC(O)(c2ccc(Cl)cc2)C(c2ccc(Cl)cc2)=C1c1ccc(Cl)cc1` (stereo not drawn), the values for the IC50 in the test with SH-SY5Y, in the test with U-87 MG [17] and in the test with HCT-116 [18] were 1.48 µM, 0.93 µM and 0.59 µM, respectively. The same molecule returned an Activity in [19] of 97%.

Regarding `C[C@@H]1CN(C)[C@]2(C(=O)N(CN3CCCC3)c3ccccc32)[C@@]12CCC/C(=C\c1ccccc1)C2=O`, the values for the concentration for half-maximal inhibition (IC50) in the test on MDA-MB-231 [8], with JEG-3 and in the test with MCF7 [4] were 31 µg/mL, 31 µg/mL (≈ 66 µM) and 31 µg/mL, respectively.

For the molecule `COc1ccc(-c2nc3sc(-c4ccc(Br)cc4Br)cn3n2)cc1`, the half-maximal inhibitory concentration (IC50) with PANC-1 came to 1.6 µM; in the test on HT-29, 1.3 µM; with A549 [21], 1.4 µM; in the test on MCF7 [7], 1.2 µM. Also, the deltaG in test [20] was -7.55 kcal/mol.

`Cc1cc(S(=O)(=O)/N=C2/NCCN2Cc2ccc(C(F)(F)F)cc2)c(SCc2nc(N)nc(N3CCN(c4cccc(F)c4)CC3)n2)cc1Cl`: the concentration for half-maximal inhibition (IC50) in the test on HeLa, in the test with HCT-116 [9] and in the test with MCF7 [7] was 4.6 µM in each case.

As to `C[C@@H]1[C@@H]2CCCC[C@@H]2N2[C@H]1[C@@H](c1ccccc1)[C@@]1(CCC/C(=C\c3ccccc3)C1=O)[C@@]21C(=O)Nc2ccccc21`, the half-maximal inhibitory concentration (IC50) in the test on HeLa stood at 7.1 µM.

The record behind these values is ChEMBL document CHEMBL5331082, “p53 as a potential target for treatment of cancer: A perspective on recent advancements in small molecules with structural insights and SAR studies” (Eur J Med Chem, 2023).
